The text below walks through data of patent publication US10968183B2, “Small molecule FIEL1 inhibitor in inflammatory and fibrotic lung injury” (UNIVERSITY OF PITTSBURGH—OF THE COMMONWEALTH SYSTEM OF …, priority 2015, dated 2021).

“Also recorded” adds a separate entry of the source.

Assay [1] has as its system bleomycin-induced lung injury in C57BL/6J mice. As to the kind of experiment: Bleomycin lung fibrosis model in mice. Particulars: estimated 5 mg/kg/d; for lung (pulmonary) fibrosis: 7-21 days. It counts as in vivo. How it is done: FIG. 7A. […] FIG. 7B. Structures of the BC-1480 backbone and lead compound BC-1485. FIG. 7C. FIEL1 protein was HIS-purified from FIEL1 expression in 293T cells using cobalt beads. Beads were then extensively washed prior to exposure to BC-1480 or BC-1485 at different concentrations (10^−4 to 100 μM). Purified PIAS4 protein was then incubated with drug-bound FIEL1 beads overnight. Beads were washed, and proteins were eluted and resolved on SDS-PAGE. The relative amounts of PIAS4 detected in the pull-downs was normalized to loading and quantified (n=2). FIG. 7D. MLE cells were exposed to BC-1480 or BC-1485 at various concentrations for 18 h. Cells were then collected and immunoblotted. FIGS. 7E-J. C57BL/6J mice were administered with bleomycin (0.05 U) for 7-21 days. Compounds BC-1480 and BC-1485 were given to mice through drinking water with an estimated dose of 5 mg/kg/d. Mice were euthanized, and lungs were lavaged with saline, harvested, and then homogenized. Lavage proteins, CXCL1, and total cell count were measured in FIGS. 7E-G. H. Survival studies of mice that were given bleomycin and compound treatments. Mice were carefully monitored over time; moribund, preterminal animals were immediately euthanized and recorded as deceased. Kaplan-Meier survival curves were generated using SPSS software (p<0.01 compared to Vehicle). Vehicle: n=24, BC-1480: n=13, BC-1485: n=12. FIG. 7I. Hydroxyproline contents were measured in lungs from 7, 14, and 21d after bleomycin challenge. FIG. 7J. Trichrome staining was performed on lung samples from E. Original magnification, ×10. *p<0.05 compared to Vehicle (t-test). Data are an average of two experiments (FIGS. 7E-J, 4-8 mice/group)
C57BL/6J mice were administered i.t. with bleomycin (0.05 U) for 7-21 days. Compounds BC-1480 and BC-1485 were given to mice through drinking water with an estimated dose of 5 mg/kg/d. Mice were then euthanized, and lungs were lavaged with saline, harvested, and then homogenized. Lavage IL-6 was measured in (FIG. 16A). Lavage cells were also processed for Wright-Giemsa stain; Lavage macrophages, neutrophils and lymphocytes were counted and graphed (FIGS. 16B-16D). H&E staining was performed on lung samples from A. Original magnification, ×10. *p<0.05 compared to Vehicle (t test). Data are an average of two experiments (A-E, 4-8 mice/group).
Murine lungs were dried and weighed prior to digestion with HCl. Hydroxyproline concentrations were measuring using methods previously described in Kesava Reddy et al., Clinical Biochemistry, 29(3): 225-229 (1996), and Neuman et al., J. of Biol. Chem., 184(1): 299-306 (1950). Hydroxyproline content was normalized to dry lung weight.
All procedures were approved by the University of Pittsburgh Institutional Animal Care and Use Committee. For fibrosis studies, male C57BL/6J mice were deeply anesthetized using a ketamine/xylazine mixture, and the larynx was well visualized under a fiber optic light source before endotracheal intubation with a 3/400 24-gauge plastic catheter. 10^7 CFU of lentivirus encoding genes for Empty (E), FIEL1, CON shRNA, or KIAA0317 shRNA was given i.t. for 144 h before administration of bleomycin (0.02 U˜0.05 U i.t.) for up to 21 days. Animals were euthanized and assayed for BAL protein, cell count, cytokines, and lung infiltrates. Survival studies were performed on mice that were given bleomycin (0.02 U˜0.05 U i.t.). Mice were carefully monitored over time; moribund, preterminal animals were immediately euthanized and recorded as deceased. For drug studies, mice were deeply anesthetized as above. Bleomycin (0.05 U i.t.) was given i.t. before BC-1480 or BC-1485 (5 mg/kg/d) was administered to the mice through their drinking water. 7-21d later, animals were euthanized and analyzed as above.

Another assay deals with JAK/STAT pathway. As to the kind of experiment: JAK/STAT protein immunoblotting in HCT8 cells exposed to DSS or IFNγ. Format: cell-based. How it is done:
HCT8 cells were pretreated with BC-1485 at different concentrations for 16 h before exposed to DSS (2%, 16 h) or IFNγ (10 ng/ml, 1 h). Cells were collected and assayed for protein immunoblotting.
In general terms: In western blotting, separated proteins are transferred to a membrane and probed.

Assay [2] deals with DSS induced acute colonic inflammation in C57BL6 mice. As to the kind of experiment: Dextran sulfate sodium induced acute colonic inflammation in mice. Format: in vivo. To be noted: 2.5% DSS in water up to 7 days; drinking water 30 ug/ml, ~5 mg/kg/d. The protocol:
C57BL6 mice were fed with water ad lib containing 2.5% dextran sulfate sodium (DSS) for up to 7 days. Mice were treated with either vehicle (control) or BC-1261 (administered into drinking water at 30 ug/ml, ˜5 mg/kg/d dosing). Colonic tissues were also analysed for TNFα, IL1 and IL6 shown in FIGS. 20E H&E staining was performed on colonic sections. The data in FIG. 20F represent n=6 mice/group, *P<0.05 versus DSS and **P<0.05 versus control. […] FIG. 20G provides pictures of the tissues at interest.
C57BL6 mice were fed with water ad lib containing 2.5% dextran sulfate sodium (DSS) for up to 7 days. Mice were treated with either vehicle (control) or BC-1261 (administered into drinking water at 30 ug/ml, ˜5 mg/kg/d dosing). Mice were then euthanized, the length of the colon and weight of the spleen were measured and graphed, shown in FIG. 20 B-D. Colonic tissues were also analysed for TNFα, IL1 and IL6 shown in FIG. 20E H&E staining was performed on colonic sections. The data in FIG. 20F represent n=6 mice/group, *P<0.05 versus DSS and **P<0.05 versus control.

[3] abbreviates: bleomycin 0.05 U i.t., up to 21 days, drinking water.
Setting [4] is: 16 h pretreatment, then DSS 2% 16 h or IFNγ 10 ng/ml 1 h.

Turning to `CC(NC(=O)c1ccc(NS(=O)(=O)c2ccc3[nH]c(=O)[nH]c3c2)cc1)C(=O)N(C)C` (stereo not shown) [BC-1485], the lung hydroxyproline content entry in assay [1] (7, 14 and 21 d after bleomycin) is recorded as “significant decrease”. In assay [1] (bleomycin 0.05 U i.t.), the “lung (pulmonary) fibrosis” value is listed as “marked decrease”; the “lung collagen (Mason Trichrome staining)” value is reported as “Decreased”; the “peribronchiolar and parenchymal fibrosis (H&E)” value is recorded as “substantially decreased”. Further, the “lung (pulmonary) fibrosis” value in assay [1] (bleomycin 0.05 U i.t., listed as BC 1485) was “inhibition of pulmonary fibrosis”. For the same compound, in assay [1] (setting [3]), the “BAL CXCL1 levels” value is listed as “significantly decreased”, the “BAL IL-6 levels” value was “significantly decreased”, the BAL protein concentrations result was “significantly decreased” and the “BAL total cell counts” value is on record as “significantly decreased”. Further, the survival result in assay [1] (bleomycin 0.05 U i.t., drinking water) was “significantly improved”. Moreover, the JAK/STAT pathway signaling result in the assay with JAK/STAT pathway was “inhibits the signaling transduction; also recorded: inhibits JAK/STAT pathway”. In the assay on JAK/STAT pathway (setting [4]), the JAK1 protein level entry is “effectively decreases”, the JAK2 protein level entry is given as “effectively decreases”, the p-Stat1 protein level result is “effectively decreases” and the p-Stat3 protein level entry is listed as “effectively decreases”. Further, the “DSS induced acute colonic inflammation” value in assay [2] is recorded as “effectively reduces”.
